Common to all, as to type: functional
Test [1] has as its system Cricetinae gen. sp. Briefly: Compound was tested for % inhibition of cholesterol in the cholesterol-fed hamster model after oral administration at a dose of 100 mg/kg/day.
The subject of test [2] is Cricetinae gen. sp. Briefly: Compound was tested for % inhibition of cholesterol in the cholesterol-fed hamster model after oral administration at a dose of 10 mg/kg/day.
For test [3], the system named is Cricetinae gen. sp. Briefly: Compound was tested for cholesterol reduction in liver in the cholesterol-fed hamster model after oral administration.
The test system of test [4] is Cricetinae gen. sp. Briefly: Compound was tested for cholesterol inhibition in the cholesterol-fed hamster model after oral administration.
Test [5] deals with Cricetinae gen. sp. Briefly: Compound was tested for % inhibition of cholesterol in the cholesterol-fed hamster model after oral administration at a dose of 25 mg/kg/day.
Test [6] concerns Cricetinae gen. sp. Briefly: Compound was tested for % inhibition of cholesterol in the cholesterol-fed hamster model after oral administration at a dose of 3 mg/kg/day.

The structures appear in SMILES notation.

`COc1ccc([C@H]2[C@@H](CCCc3ccccc3)C(=O)N2c2ccccc2)cc1`: in test [1], the Reduction is 0%. For the molecule `COc1ccc([C@H]2[C@H]([C@@H](O)CCc3ccccc3)C(=O)N2c2ccccc2)cc1`, the Reduction in test [2] turned out to be 0%. In the case of `COc1ccc([C@@H]2[C@H]([C@H](O)CCc3ccccc3)C(=O)N2c2ccccc2)cc1`, the ED50 (commonly the dose that gives a 50% effect, or the effect in half of the subjects) in test [3] is 0.4 mg/kg/day.

Consider `COc1ccc([C@H]2[C@H]([C@H](O)CCc3ccccc3)C(=O)N2c2ccccc2)cc1`, for which the Reduction in test [2] is given as 38%. `COc1ccc([C@H]2[C@@H]([C@H](O)CCc3ccccc3)C(=O)N2c2ccccc2)cc1` registered a Reduction in test [2] of 0%. In test [4], `COc1ccc(C2N(c3ccc(OC)cc3)C(=O)[C@]23CC[C@H](c2ccccc2)CC3)cc1` (stereo partly drawn) yielded an ED50 of 3 mg/kg.

Turning to `COc1ccc([C@H]2[C@@H]([C@@H](O)CCc3ccccc3)C(=O)N2c2ccccc2)cc1`, in test [2], the Reduction came to 22%. On to `COc1ccc([C@@H]2[C@H](CCCc3ccccc3)C(=O)N2c2ccccc2)cc1`, for which, in test [3], it took a dose of 4 mg/kg/day to reach the 50% effect level (ED50).

The molecule `COc1ccc([C@H]2[C@H](CCCc3ccccc3)C(=O)N2c2ccccc2)cc1` yielded a Reduction in test [5] of 0%. For the molecule `COc1ccc([C@@H]2[C@@H]([C@H](O)CCc3ccccc3)C(=O)N2c2ccccc2)cc1`, in test [3], the median effective dose (ED50) stood at 1.2 mg/kg/day. The same measure, in the same setting: the result for `COc1ccc([C@@H]2[C@@H](CCCc3ccccc3)C(=O)N2c2ccccc2)cc1` reads 0.54 mg/kg/day.

`COc1ccc([C@@H]2[C@H]([C@@H](O)CCc3ccccc3)C(=O)N2c2ccccc2)cc1` registered a Reduction in test [6] of 0%.

As for `COc1ccc([C@@H]2[C@@H]([C@@H](O)CCc3ccccc3)C(=O)N2c2ccccc2)cc1`, in test [3], the ED50 worked out at 8.6 mg/kg/day.
